Measurements: patent US9969674B2, “MMF-derivatives of ethyleneglycols” (RATIOPHARM GMBH, priority 2014, dated 2018)
Values joined by “and” are separate entries in the source; they are usually repeats but may differ in a detail not shown here. Equal values may be shown once. Where a name gives a salt, the structure may show the parent alone.

Legend:
[1] = Kinetics of MMF-release during incubation in intestinal fluid of the minipig; assay type: in vitro ADME, Göttingen SPF minipig; conditions: for release of the second equivalent of MMF / release kinetics of the first equivalent of MMF: diluted minipig small intestinal fluid pH 6.8, 37° C., compared with DMF (FIG. 1); for release kinetics of the first equivalent of MMF: time 0-30 min
Description: Example 7: Investigation and Comparison of the Kinetics of MMF-Release of the Different Compounds of the Present Invention and DMF During Incubation in Intestinal Fluid of the Minipig
Intestinal tissue/fluid and enterocyte samples were taken from a 10 month old, female Göttingen SPF minipig. The body weight was 21 kg. The minipig was fasted for approximately 28 hours before sampling of intestinal fluid/tissues and enterocytes. On the day of sampling, the minipig was weighed and anaesthetised by an intramuscular injection in the neck or in the left hind leg (about 0.3 ml per kg body weight) of a mixture of Zoletil 50 Vet., Virbac, France (125 mg tiletamine and 125 mg zolazepam), Rompun Vet., Bayer, Germany (20 mg xylazine/ml, 6.5 ml), Ketaminol Vet., Veterinaria AG, Switzerland (100 mg ketamine/ml, 1.5 ml) and Methadon DAK, Nycomed Danmark, Denmark (10 mg methadon/ml, 2.5 ml). The animal was killed by exsanguination before sampling of intestinal fluid. An intestinal segment was ligated at both ends before removal. The isolated tissue was placed in isotonic saline and opened by a longitudinal cut for sampling of intestinal fluid.
The intestinal tissue from each segment was transferred into a Centrifuge Tube, immersed in 10 ml 50 mM phosphate buffer, pH 6.8 and frozen at −70° C.
• Instrument: Acquity UPLC system coupled with a TQ detector (triple quadruple mass spectrometer) UPLC Method: Column: Phenomenex Kinetex C18, 100 A, 2.6 μm (150×4.6 mm) flow: 0.4 ml/min split: appr. 100 μl/min to MS Temperature: 30° C. solvent system (isocratic): • Solvent A 25% water with 0.1% acetic acid • Solvent B 75% methanol with 0.1% acetic acid stoptime: 6 min autosampler temperature: 8° C. injection volume: 4 μl retention time: MN/IF: 4.3 min • MEF: 4.7 min Mass Spectrometry software: Masslynx 4.1 detection mode: electrospray/negative ions (ESP−) capillary voltage: 2.3 kV source temperature: 100° C. desolvation temperature: 450° C. cone voltage: 18 V desolvation gas: N2 650 L/h cone gas: N2, 20 L/h collision gas: argon, appr. 3.3*10^−3 mbar collision energy: 11 eV MRM [m/z]: 128.94>85.03 Monomethylfumarate dwell: 200 msec • 142.99>99.06 Monoethylfumarate (ISTD) dwell: 200 msec 7.2.1.2 Stock and Calibration Solutions
Stock (SS), working (WS) and calibration solutions of the analyte monomethyl fumarate (MMF) and the internal standard (ISTD) […] (MEF) were prepared as described below. • SSMMF: In a 10 ml volumetric flask, 6.5 mg MMF (Batch: MKRJ0642V/Aldrich) were dissolved in methanol and made up to volume (c=650 μg/ml) • SSISTD: In a 100 ml volumetric flask, 10 mg MEF (Batch: STBC5219V/Aldrich) were dissolved in methanol and made up to volume (c=100 μg/ml) • WSISTD: 100 μl SSISTD were transferred into a 10 ml volumetric flask and made up to volume with acetonitrile (c=1,000 ng/ml);
Calibration solutions were prepared by serial dilution of SSMMF; diluted small intestinal fluid (diluted by 1/20 v/v with 50 mM KH2PO4, pH 6.8; (dil IF) was used as matrix. The dilution scheme is given below:
50 μl sample (calibration solution or sample of an incubation experiment with MMF prodrugs) was mixed with 50 μl WSISTD, 20 μl formic acid and 100 μl acetonitrile. This mixture was vortexed for 15 sec and centrifuged (13,000 rpm, 3 min). Thereafter, 4 μl of the supernatant were subjected to LC-MS analysis.
Stock solutions were prepared in DMSO or, for one compound, in DMSO with 10% (v/v) water. Concentrations in stock solutions were […] for compounds with one, two and three molar MMF equivalents.
In a HPLC glass vial, 8 μl of stock solution were mixed with 792 μl dil IF and the mixture was stirred (250 rpm) in a water bath (T=37° C.).
Immediately after mixing as well as at t=15 min, 30 min, 60 min, 90 min and 120 min, 50 μl were withdrawn and prepared for LC-MS analysis as described in chapter. 2.1.3. […]

Caco-2 monolayers = experiment: in vitro
Description: (§1) The membrane permeability was investigated in Caco-2 monolayers. DMF was investigated in a separate experiment for comparison.
(§2) Based on the assumption that in vivo, the intact molecules will be pre-systemically metabolized, the permeability test was performed only in the apical→basolateral direction. The test concentration in the apical medium was 250 μM. […] Sampling time points were 15, 45 and 90 min.

[2] = test system: MOG35-55-induced experimental autoimmune encephalomyelitis (EAE); experiment: MOG35-55-induced experimental autoimmune encephalomyelitis (EAE) in C57BL/6 mice; assay type: in vivo; conditions: for body weight: prophylactic oral treatment from day 1, observation day 1-13 (FIG. 2); for development of clinical symptoms (clinical score): prophylactic oral treatment from day 1, observation day 1-13, 11.54 mM dose formulation, 10 ml/kg (FIG. 3)
Excerpt: Assessment and comparison of the efficacy of compounds of the invention and DMF (reference) in MOG35-55-induced experimental autoimmune encephalomyelitis (EAE) in C57BL/6 mice: • Test system: male C57BL/6 mice, 12 weeks old; 10 animals per treatment group; • Induction of EAE: Day −1—subcutaneous injection of MOG35-55, suspended in complete Freund's adjuvans and intraperitoneal injection of pertussis toxin. • Day 3—intraperitoneal injection of pertussis toxin. • Treatment: Dimethylfumarate and test substances or vehicle only were administered via oral route. Test substances were dissolved or suspended in 0.5% hydroxyethylcellulose (dissolved in 50 mM potassium dihydrogenphosphate, pH 5.0). Drug concentration in dose formulations: 11.54 mM; • Dose volume: 10 ml/kg body weight; • Start of treatment: Day 1 • Observations (clinical Observations were recorded daily between day 1 and 13. score and body weight): • Clinical score: grade 0-10; 0 (=no impairments), 1 (normal movement; limp tail: proximal ⅔ of the tail is limp and droopy), 2 (normal movement; whole tail is limp; 3 (wobbly walk; absent righting reflex), 4 (gait ataxia), 5 (mild paraparesis), 6 (moderate paraparesis), 7 (severe paraparesis or paraplegia), 8 (tetraparesis), 9 (moribund), 10 (death).

in vitro = conditions: human, Caco-2
Description: as §1, §2

[3] = In vivo pharmacokinetics of MMF after oral administration in NMRI mice; conditions: female, mouse, 65.3 mg/kg
Description: The pharmacokinetics of MMF after administration of the compound of Example 1 and DMF for comparison was investigated in female NMRI mice (3 animals per group). The test compound was dissolved in DMSO/PEG300 (20/80) and administered p.o. (gavage) at a dose volume of 10 ml/kg. DMF was given at a dose of 45 mg/kg. The test compound was dosed at a MMF-equivalent dose, i.e. 65.3 mg/kg. Blood samples were taken at 0.25, 0.5, 1.0, 2.0, 4.0, 6.0 and 8.0 h after drug administration.
Pharmacokinetic parameters, derived by non-compartmental analysis for test compound (Example 1): […]

| SMILES | permeability category compared to the reference molecules (Caco-2 monolayers; Caco-2) | body weight [2] | development of clinical symptoms (clinical score) [2] | release of the second equivalent of MMF [1] | release kinetics of the first equivalent of MMF [1] | also measured |
| --- | --- | --- | --- | --- | --- | --- |
| COC(=O)/C=C/C(=O)OC(C)OC(=O)/C=C/C(=O)OC [(E)-But-2-enedioic acid 1-((E)-3-methoxycarbonyl-acryloyloxy)-ethyl ester methyl ester, reference compound] |  |  |  |  |  | release kinetics of MMF ([1]; incubation in intestinal fluid of the minipig, compared with DMF (FIG. 8)): considerable faster than that of DMF |
| COC(=O)/C=C/C(=O)OC [DMF, Dimethyl fumarate] | moderate permeability | remained stable | protected from the development of clinical symptoms |  |  | Recovery [%] mean ± s.d. (Caco-2 monolayers; Caco-2): 11.6 ± 1.0%; Papp × 10^−6 [cm/sec] mean ± s.d. (Caco-2 monolayers; human, Caco-2, 250 μM): 1.8 ± 0.2 10^−6 cm/sec |
| COC(=O)/C=C/C(=O)OCCOCCOCCOCCOC(=O)/C=C/C(=O)OC [Example 1, (E)-But-2-enedioic acid 2-(2-{2-[2-((E)-3-methoxycarbonyl-acryloyl-oxy)-ethoxy]-ethoxy}-ethoxy)-ethyl ester methyl ester] | moderate permeability | remained stable | protected from the development of clinical symptoms | released more slowly | essentially identical to that of DMF | Papp A→B at 250 μM (in vitro): 1 ± 0.1 ×10⁻⁶ cm/s; recovery at 90 min, 250 µM (in vitro): 17.1%; AUC(0-inf) [3]: 5990 ng·h/mL |
| COC(=O)/C=C/C(=O)OCCOCCOCCOC(=O)/C=C/C(=O)OC [Example 2, (E)-But-2-enedioic acid 2-{2-[2-((E)-3-methoxycarbonyl-acryloyl-oxy)-ethoxy]-ethoxy}-ethyl ester methyl ester] |  |  |  | released more slowly | essentially identical to that of DMF |  |
| COC(=O)/C=C/C(=O)OCCOCCOC(=O)/C=C/C(=O)OC [Example 3, (E)-But-2-enedioic acid 2-[2-((E)-3-methoxycarbonyl-acryloyloxy)-ethoxy]-ethyl ester methyl ester] |  |  |  | released more slowly | essentially identical to that of DMF |  |
| C[C@]12CC[C@H]3[C@@H](CCC4=CC(=O)CC[C@@]43C)[C@@H]1CC[C@@H]2O [Testosterone, testosterone] |  |  |  |  |  | Recovery [%] mean ± s.d. (Caco-2 monolayers; direction a-b): 67.3 ± 1.2% and 62.5 ± 2.1%; Recovery [%] mean ± s.d. (Caco-2 monolayers; direction b-a): 94.9 ± 0.9% and 76.1 ± 4.5% |
